System: T1, Bgl
T1 construct: gene bglA; bglA-bglB fusion (usp45-bglA-usp45-bglB, pMG36e) secreted by L. lactis NZ9000; gene 2722 bp; printed about 75 kDa (less than the sum of both); supernatant / TCA-acetone precipitate
Assay: DNS reducing sugar assay, Michaelis-Menten / Lineweaver-Burk fit
Type: biochemical, Paenibacillus polymyxa
Conditions: 50 °C, pH 7.0; bacterial supernatant
Excerpt: DNS reducing sugar assay, Michaelis-Menten / Lineweaver-Burk fit on Bgl

Compound: OCc1ccccc1O[C@@H]1O[C@H](CO)[C@@H](O)[C@H](O)[C@H]1O [salicin]
- Km: 34.8 µM

— publication PMC10305218, “Expression of β-Glucosidases from the Yak Rumen in Lactic Acid Bacteria: A Genetic Engineering Approach” (Microorganisms, 2023)
